In article PMC11181338 (Journal of Medicinal Chemistry, 2024):
Each block holds one molecule with its values, some of them ahead of it.

Tests used:
human KCNT2 = biological target: T1, human KCNT2 (Homo sapiens, UniProt Q6UVM3); assay: Whole-cell patch-clamp, HEK cells expressing KCNT2; format: cell-based; conditions: KCNT2 currents
T1 sequence (Q6UVM3 1-1135): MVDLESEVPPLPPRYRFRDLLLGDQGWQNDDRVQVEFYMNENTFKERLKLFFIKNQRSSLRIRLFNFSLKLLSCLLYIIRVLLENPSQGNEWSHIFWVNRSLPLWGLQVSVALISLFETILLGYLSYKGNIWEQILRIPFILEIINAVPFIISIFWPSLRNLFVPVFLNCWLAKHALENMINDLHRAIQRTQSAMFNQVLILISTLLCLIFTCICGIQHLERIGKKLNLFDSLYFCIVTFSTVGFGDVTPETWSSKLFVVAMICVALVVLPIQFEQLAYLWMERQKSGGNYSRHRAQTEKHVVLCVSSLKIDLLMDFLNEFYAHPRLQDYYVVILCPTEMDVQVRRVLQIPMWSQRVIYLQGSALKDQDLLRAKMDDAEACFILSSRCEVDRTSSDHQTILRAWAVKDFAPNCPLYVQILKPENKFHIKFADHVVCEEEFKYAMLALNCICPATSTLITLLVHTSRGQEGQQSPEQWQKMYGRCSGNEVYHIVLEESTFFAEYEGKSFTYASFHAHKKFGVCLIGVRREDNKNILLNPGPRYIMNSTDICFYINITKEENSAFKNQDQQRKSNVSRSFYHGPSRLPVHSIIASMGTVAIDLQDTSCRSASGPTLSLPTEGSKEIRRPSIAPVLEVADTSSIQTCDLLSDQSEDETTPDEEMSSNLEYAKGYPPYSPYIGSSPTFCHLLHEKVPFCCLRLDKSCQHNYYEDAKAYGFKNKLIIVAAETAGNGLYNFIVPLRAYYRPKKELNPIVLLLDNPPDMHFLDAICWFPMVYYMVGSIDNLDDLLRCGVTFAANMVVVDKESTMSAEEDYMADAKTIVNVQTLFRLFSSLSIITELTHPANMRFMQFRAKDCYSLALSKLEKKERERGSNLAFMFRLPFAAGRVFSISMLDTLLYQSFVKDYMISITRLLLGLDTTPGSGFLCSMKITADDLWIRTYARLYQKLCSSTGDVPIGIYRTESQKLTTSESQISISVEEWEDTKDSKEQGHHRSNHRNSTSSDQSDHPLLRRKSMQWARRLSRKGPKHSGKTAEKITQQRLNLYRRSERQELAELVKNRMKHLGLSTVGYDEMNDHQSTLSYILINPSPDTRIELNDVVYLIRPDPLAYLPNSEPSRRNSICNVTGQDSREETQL

Human plasma stability = format: in vitro ADME
hERG = hERG (Homo sapiens, UniProt Q12809); assay: Whole-cell patch-clamp, CHO cells transiently transfected with hERG; conditions: for hERG-blocking activity: 10 μM; for inhibition at 10 µM: human, pH 7.4, % of hERG inhibition, tail currents at −100 mV
[1] = In vitro drug metabolism using human liver microsomes; conditions: HLM
Plasma protein binding = format: in vitro ADME; conditions: 10 μM, 4 h, 37 °C
[2] = test system: KCNT1 versus KCNT2 channels; conditions: cited from earlier work
KCNT2 = conditions: up to 10 μM, Tl+ flux assay; cited from earlier work
human KCNT1 [3] = biological target: T2, human KCNT1 (Homo sapiens, UniProt Q5JUK3); assay: FluxOR thallium; format: cell-based
T2 sequence (Q5JUK3 1-1256 isoform Q5JUK3-2): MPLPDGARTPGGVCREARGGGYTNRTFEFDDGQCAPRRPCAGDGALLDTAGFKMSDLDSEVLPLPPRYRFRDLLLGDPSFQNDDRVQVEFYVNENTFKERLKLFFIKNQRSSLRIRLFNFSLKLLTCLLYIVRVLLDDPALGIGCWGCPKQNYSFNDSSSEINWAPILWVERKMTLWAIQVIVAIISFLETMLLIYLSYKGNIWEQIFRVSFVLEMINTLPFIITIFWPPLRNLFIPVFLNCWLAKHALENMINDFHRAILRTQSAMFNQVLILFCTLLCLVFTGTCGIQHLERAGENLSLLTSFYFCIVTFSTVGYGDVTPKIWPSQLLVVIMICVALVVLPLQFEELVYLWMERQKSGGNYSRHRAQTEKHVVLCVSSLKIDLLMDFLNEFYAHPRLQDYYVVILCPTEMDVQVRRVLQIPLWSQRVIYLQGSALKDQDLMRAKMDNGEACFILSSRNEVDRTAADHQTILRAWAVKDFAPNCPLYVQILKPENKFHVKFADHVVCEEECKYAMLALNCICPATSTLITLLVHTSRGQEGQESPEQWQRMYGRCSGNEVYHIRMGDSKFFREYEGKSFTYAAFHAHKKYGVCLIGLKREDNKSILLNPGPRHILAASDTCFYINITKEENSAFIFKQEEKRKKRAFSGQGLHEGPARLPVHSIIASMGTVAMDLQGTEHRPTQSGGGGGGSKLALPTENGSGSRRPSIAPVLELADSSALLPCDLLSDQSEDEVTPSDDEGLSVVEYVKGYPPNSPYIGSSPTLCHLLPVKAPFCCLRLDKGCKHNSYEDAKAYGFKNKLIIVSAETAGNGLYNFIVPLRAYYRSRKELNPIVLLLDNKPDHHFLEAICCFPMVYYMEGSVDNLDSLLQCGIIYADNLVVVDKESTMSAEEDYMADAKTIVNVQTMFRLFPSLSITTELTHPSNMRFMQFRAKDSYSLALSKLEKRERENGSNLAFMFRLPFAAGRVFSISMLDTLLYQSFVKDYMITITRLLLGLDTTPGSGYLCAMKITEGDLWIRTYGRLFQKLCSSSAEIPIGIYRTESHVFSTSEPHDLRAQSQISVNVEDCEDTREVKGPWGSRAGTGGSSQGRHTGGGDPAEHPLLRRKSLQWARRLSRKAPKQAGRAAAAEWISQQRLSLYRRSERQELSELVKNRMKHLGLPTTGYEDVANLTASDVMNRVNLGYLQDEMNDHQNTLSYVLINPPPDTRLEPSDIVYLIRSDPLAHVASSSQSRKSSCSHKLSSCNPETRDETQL

untransfected CHO cells = assay: FluxOR Tl+ fluorescence assay in untransfected CHO cells; format: cell-based, Chinese Hamster; conditions: 10 μM
hERG channels = conditions: cited from earlier work; for % of hERG current blocked: 10 μM
human KCNT1 [4] = biological target: T2, human KCNT1; assay: Whole-cell patch-clamp, CHO cells transiently transfected with hKCNT1; format: cell-based; conditions: 10 μM
KCNT1 = conditions: read-out: KCNT1 IC50; cited from earlier work

Sequence of hERG (Q12809 whole entry): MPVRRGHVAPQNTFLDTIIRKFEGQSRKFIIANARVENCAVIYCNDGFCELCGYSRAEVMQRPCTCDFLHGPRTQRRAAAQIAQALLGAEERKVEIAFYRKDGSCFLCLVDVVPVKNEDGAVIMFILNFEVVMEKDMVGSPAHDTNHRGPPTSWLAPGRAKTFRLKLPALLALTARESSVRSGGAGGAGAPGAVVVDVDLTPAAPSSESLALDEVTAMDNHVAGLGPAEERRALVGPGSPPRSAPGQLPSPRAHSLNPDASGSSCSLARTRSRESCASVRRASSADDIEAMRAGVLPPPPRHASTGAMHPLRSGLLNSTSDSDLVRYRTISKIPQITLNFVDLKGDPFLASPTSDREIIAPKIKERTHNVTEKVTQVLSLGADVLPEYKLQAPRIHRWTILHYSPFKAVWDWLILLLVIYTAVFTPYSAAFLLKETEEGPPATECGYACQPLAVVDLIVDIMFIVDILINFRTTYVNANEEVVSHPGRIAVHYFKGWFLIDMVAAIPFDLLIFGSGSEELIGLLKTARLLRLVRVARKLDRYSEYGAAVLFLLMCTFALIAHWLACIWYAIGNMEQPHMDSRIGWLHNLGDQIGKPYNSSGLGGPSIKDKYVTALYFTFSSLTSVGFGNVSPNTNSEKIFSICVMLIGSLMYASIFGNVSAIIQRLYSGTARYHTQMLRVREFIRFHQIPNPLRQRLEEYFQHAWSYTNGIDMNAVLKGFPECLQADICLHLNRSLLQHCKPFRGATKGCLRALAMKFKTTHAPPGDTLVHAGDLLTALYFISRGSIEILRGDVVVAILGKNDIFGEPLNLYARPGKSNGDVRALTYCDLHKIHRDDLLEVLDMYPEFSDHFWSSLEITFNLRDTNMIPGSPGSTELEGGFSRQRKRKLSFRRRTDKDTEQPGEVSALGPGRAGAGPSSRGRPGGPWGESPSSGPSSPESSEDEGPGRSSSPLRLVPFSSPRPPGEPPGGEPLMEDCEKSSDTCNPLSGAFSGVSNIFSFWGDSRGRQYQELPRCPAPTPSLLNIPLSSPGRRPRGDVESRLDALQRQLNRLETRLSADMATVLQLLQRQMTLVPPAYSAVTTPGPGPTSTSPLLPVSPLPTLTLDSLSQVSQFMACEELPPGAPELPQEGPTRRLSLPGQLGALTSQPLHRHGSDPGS

Hill slope (k values) (human KCNT2): −0.57 ± 0.09 mV/efold
recovery at 120 min (Human plasma stability): ≥ 80%
clearance category [1]: low clearance
CLint in vitro ([1]; NADPH + UDPGA): < 1 mL min^–1 kg^–1
binding to plasma proteins (Plasma protein binding): 99%
Compound: O=S(=O)(Nc1ccc2c(c1)CCN2Cc1ccc(C(F)(F)F)cc1C(F)(F)F)C1CCCCC1 [CPK20, N-{1-[2,4-Bis(trifluoromethyl)benzyl]indolin-5-yl}cyclohexanesulfonamide]
hERG-blocking activity (hERG): devoid of hERG-blocking activity

Compound: CCCCCCC[N+](CC)(CC)CCCCc1ccc(Cl)cc1 [clofilium]
inhibitory potency KCNT1 versus KCNT2 [2]: stronger inhibitory potency for KCNT1 versus KCNT2 channels

Compound: COc1ccc(Cl)cc1NC(=O)CN1CCN(S(=O)(=O)N2CCC(C)CC2)CC1 [VU0606170]
KCNT2 blocking effect (KCNT2): no KCNT2 blocking effect

EC50 (human KCNT1 [3]): 4 ± 1.7 µM
slope of the Tl+ fluorescence curve (human KCNT1 [3]; 10 μM, 15 min preincubation, KCNT1 stably transfected CHO cells): 0.041 ± 0.006
Compound: CN1CCN(C2=Nc3ccccc3Oc3ccc(Cl)cc32)CC1 [LOX, loxapine]
slope of the Tl+ fluorescence curve (untransfected CHO cells): 0.0007 ± 0.0006

Compound: O=C(Nc1cccc(C(F)(F)F)c1)c1ccc2nc(N3C(=O)c4ccccc4C3=O)sc2c1 [BC12]
% of hERG current blocked (hERG channels): 15–20%

Compound: CCOC(=O)[C@@H]1CS[C@@]2(C(=O)Nc3ccc(Br)cc32)N1C(=O)c1ccc(Cl)cc1 [CPK16, (2′S,4′R)-Ethyl 5-bromo-3′-(4-chlorobenzoyl)-2-oxospiro[indoline-3,2′-thiazolidine]-4′-carboxylate]
hERG-blocking activity (hERG): devoid of hERG-blocking activity

Compound: Cc1cc(O)ccc1N/C=C/C(=O)c1ccccc1 [BC13]
% of hERG current blocked (hERG channels): 15–20%

recovery at 120 min (Human plasma stability): ≥ 80%
clearance category [1]: high
CLint in vivo ([1]; NADPH + UDPGA, scaled with human PBSF): < 80 mL min^–1 kg^–1
binding to plasma proteins (Plasma protein binding): 99%
Compound: O=C(NCc1ccccc1)[C@H](Cc1c[nH]c2ccccc12)NCc1ccc(Oc2ccccc2)cc1 [CPK18, (S)-N-Benzyl-3-(1H-indol-3-yl)-2-[(4-phenoxybenzyl)amino]propanamide]
hERG-blocking activity (hERG): devoid of hERG-blocking activity

Compound: Oc1ccc2ccccc2c1CNCCc1c[nH]c2ccccc12 [CPK13, 1-{[(2-(1H-Indol-3-yl)ethyl]amino)methyl}naphthalen-2-ol]
blocking time constant (τon) (human KCNT1 [4]): 17.7 ± 2.3 s
inhibition at 10 µM (hERG): 30 to 40%

Compound: C=C[C@H]1C[N@@]2CC[C@H]1C[C@@H]2[C@@H](O)c1ccnc2ccc(OC)cc12 [QND, quinidine]
IC50 (KCNT1): 80 to 100 µM

blocking time constant (τon) (human KCNT1 [4]): 49.0 ± 9.6 s
effect on the fluorescent signal (human KCNT1 [3]; 10 μM, followed by LOX 10 μM): markedly reduced the fluorescent signal
Compound: CC(C)(C)CNC(=O)Nc1ccc2c(c1)CCN2Cc1ccc(F)cc1 [CPK4, 1-[1-(4-Fluorobenzyl)indolin-5-yl]-3-neopentylurea]
inhibition at 10 µM (hERG): 30 to 40%
